This passage reports viability results from paper PMC12040169 (PLOS Biology, 2025).

The nature of this series: in vitro. The following applies: human, hela cells, % viability.

On to `COC(=O)Cn1c(CN2CCN(c3ccccc3F)CC2)nc2c1c(=O)n(C)c(=O)n2C` [CBK269444], for which the viability (usually a read-out of living cells in per cent, often relative to untreated cells) at 28.5 h, 10 µM is 93.1%.

Consider `COc1cc(CNc2nccnc2-c2cccnc2)cc(OC)c1` [CBK038061], for which the viability at 28.5 h, 10 µM amounted to 105%.

Take `CNC(=O)C1(Cc2ccc(-c3ccccc3)cc2)CCN(C(=O)Cc2ccc(C)cc2)CC1` [CBK285769]: the viability at 28.5 h, 10 µM stood at 90.4%.

On to `Cc1nn2cc(CNC(=O)CN3CCOc4ccccc4C3)nc2s1` [CBK306921], for which the viability at 28.5 h, 10 µM was 89%.

For `COc1cc(C2CN=NC23Cc2ccccc2C3=O)cc(OC)c1OC` (stereo not shown) [CBK019341], the viability at 28.5 h, 10 µM is 90.4%.

As for `CC(=O)c1ccc(-c2cnc3[nH]c(=O)n([C@@H](C)c4ccccc4)c3n2)s1` [CBK064360], the viability at 28.5 h, 10 µM was found to be 98.3%.

For `Cc1ccc(S(=O)(=O)NCCCC(=O)Oc2cc3oc(=O)c4c(c3cc2Cl)CCC4)cc1` [CBK264967], the viability at 28.5 h, 10 µM came to 86.8%.

`CC1CCc2c(sc(NC(=O)c3cnccn3)c2C(N)=O)C1` (stereo not shown) [CBK265466]: the viability at 28.5 h, 10 µM is 90.7%.

For the molecule `CC(C)C(=O)N1CCC2(C/C=C/C[C@H]3COCC[C@H]3NC(=O)CNC2=O)CC1` [CBK292157], the viability at 28.5 h, 10 µM was 95.8%.

Turning to `Cn1c(N2CC[C@H](O)C2)nc2cc(C(=O)NCCC3CCCC3)ccc21` [CBK307447], the viability at 28.5 h, 10 µM came out at 87.9%.

Turning to `CC(C)(C)c1cc(CN)c(C(=O)O)o1` [CBK266510C], the viability at 28.5 h, 10 µM came out at 94.3%.

For the molecule `Cc1cc2c(cc3c(=O)n(CC(=O)NCC4CC4)nc(C)n32)s1` [CBK284097], the viability at 28.5 h, 10 µM stood at 96.6%.

With `CC1CCCCN1CC(C)(C)NC(=O)c1cc(C2CC2)on1` (stereo not shown) [CBK281676], the viability at 28.5 h, 10 µM is 100%.

As for `Cc1ccc(C)c(C(=O)C2=C(O)C(=O)N(CCCN3CCOCC3)C2c2ccncc2)c1` (stereo not shown) [CBK265492], the viability at 28.5 h, 10 µM came to 103%.

With `c1cnc(N2CCN(Cc3ccc4c(c3)OCO4)CC2)c(OCCN2CCOCC2)n1` [CBK082894T], the viability at 28.5 h, 10 µM was 87.8%.

Regarding `c1ccc2c(OCc3nnn[nH]3)cccc2c1` [CBK269495], the viability at 28.5 h, 10 µM stood at 103%.

On to `CCOc1ccc(Cl)cc1CN(C)C(=O)NCC(c1ccco1)N(C)C` (stereo not shown) [CBK307013], for which the viability at 28.5 h, 10 µM stood at 88%.

For the molecule `Cc1nccn1CCC1CCN(C(=O)c2cn3ccccc3n2)CC1` [CBK281868], the viability at 28.5 h, 10 µM stood at 91.2%.

As for `COc1cc(CN2CCN(Cc3cccc4ccccc34)CC2)c([N+](=O)[O-])cc1OC` [CBK074450G], the viability at 28.5 h, 10 µM worked out at 106%.

On to `Cc1cc(N2CCNCC2)c2ccccc2n1` [CBK066895], for which the viability at 28.5 h, 10 µM stood at 86.1%.

Regarding `COCC(=O)N[C@H]1CC(C)(C)[C@@H]2C[C@@](C)(O)CC[C@]12CCC(=O)N1CCCC1` [CBK289043], the viability at 28.5 h, 10 µM was 88.4%.

For the molecule `Cc1ccc(NC(=O)N(Cc2ccccc2Br)CC(C)(C)CN)cc1[N+](=O)[O-]` [CBK002436C], the viability at 28.5 h, 10 µM was 111%.

On to `CCCCCSc1c(C#N)nc(N2CCOCC2)c2c1CC(C)(C)OC2` [CBK021748], for which the viability at 28.5 h, 10 µM came to 92.1%.

For the molecule `O=C(O)CCCC(=O)Nc1ccc(Cc2ccncc2)cc1` [CBK300493], the viability at 28.5 h, 10 µM was found to be 93.1%.

`COc1ccc(Nc2ncc(C(=O)NCCCN3CCCC3)c3ccccc23)cc1` [CBK291114]: the viability at 28.5 h, 10 µM was determined as 106%.

Regarding `COc1ccccc1NC(=S)NCCc1ccc(S(N)(=O)=O)cc1` [CBK266201], the viability at 28.5 h, 10 µM worked out at 95.1%.

Consider `CC(C)(C)c1ccc(OCC(=O)Nc2ccc(OCC(=O)O)cc2)cc1` [CBK287013], for which the viability at 28.5 h, 10 µM is 113%.

Turning to `CCN1C(=O)C(F)(CC)C(=O)c2ccccc21` (stereo not shown) [CBK098854], the viability at 28.5 h, 10 µM was 107%.

`COc1ccc(C)cc1CC(=O)N1CCc2c(sc3ncnc(N)c23)C1` [CBK305878]: the viability at 28.5 h, 10 µM turned out to be 83.4%.

Take `Cc1ccc(NC(=O)c2cnc3scc(C)n3c2=O)cc1C` [CBK287461]: the viability at 28.5 h, 10 µM worked out at 108%.

`CC(C)c1ccc(/C=C2\CCCc3c2nc2ccccc2c3C(=O)O)cc1` [CBK299777]: the viability at 28.5 h, 10 µM came to 91.2%.

Take `O=S(=O)(c1ccc2c(c1)nc1n2CCC1)N1CCOCC1` [CBK019200]: the viability at 28.5 h, 10 µM is 49.6%.

`O=C1N(c2cccc(Cl)c2)Cc2nc(=O)[nH]n21` [CBK288430]: the viability at 28.5 h, 10 µM was found to be 85.1%.

Regarding `O=C(c1cncnc1)N1CCC(Cc2ccccc2)CC1` [CBK200212], the viability at 28.5 h, 10 µM was determined as 92.8%.

In the case of `Cc1ccc(Cl)c(OC(=O)NCCOC(=O)NO)c1` [CBK288417], the viability at 28.5 h, 10 µM (bulk resorufin, single well) was determined as 94.3%.

In the case of `Cc1nn(CC(C)C)c(C)c1CCC(=O)NCc1nnc2ccccn12` [CBK305719], the viability at 28.5 h, 10 µM came out at 88.1%.

As to `NS(=O)(=O)c1ccc(-c2ccc(/C=C3\C(=O)NC(=O)N(c4ccc(Br)cc4)C3=O)o2)cc1` [CBK263423], for the setting “bulk resorufin, single well”, the viability at 28.5 h, 10 µM was 93.2%.

For `CC(C)(C(=O)N1CCC(C(=O)NCCc2c[nH]c3ccccc23)C1)c1ccc(F)cc1` (stereo not shown) [CBK286034], the viability at 28.5 h, 10 µM was found to be 102%.

Take `COc1cccc(C(=O)Oc2ccc3c(=O)c(-c4nc5ccccc5s4)c(C)oc3c2)c1` [CBK265540]: the viability at 28.5 h, 10 µM came out at 103%.

Turning to `CC(=O)N1CCN(c2c(-c3ccccc3)nnc3ccccc23)CC1` [CBK066889], the viability at 28.5 h, 10 µM was found to be 91.2%.

As to `CC(O)CN(Cc1ccc(-n2cnc3ccccc32)cc1)Cc1ccc2c(c1)OCO2` (stereo not shown) [CBK286475], the viability at 28.5 h, 10 µM was 101%.

Take `CC(C)(C)NC(=O)CN1C(=O)N2CCCN=C2c2ccc(Cl)cc21` [CBK284391]: the viability at 28.5 h, 10 µM was determined as 102%.

On to `CN1CCN(C(=S)SCC(=O)O)CC1` [CBK261549C], for which the viability at 28.5 h, 10 µM came to 92.8%.

With `O=C(CC1Sc2ccccc2NC1=O)Nc1ccccc1[N+](=O)[O-]` (stereo not shown) [CBK264014], the viability at 28.5 h, 10 µM is 94.8%.

With `O=[N+]([O-])c1cc(-c2nnc(-c3ccccc3)o2)ccc1-n1c(-c2ccccc2)nnc1-c1ccccc1` [CBK267341], the viability at 28.5 h, 10 µM was 99.2%.

As to `Cc1ccc2c(NC(=O)c3cc4c([nH]c3=O)CCC4)c(C)ccc2n1` [CBK281568], the viability at 28.5 h, 10 µM amounted to 93%.

For `Clc1ccc(OCc2nnn[nH]2)c(C2CCCCC2)c1` [CBK270035], the viability at 28.5 h, 10 µM is 103%.

`CC(CNC(=O)COc1cc(Cl)c(Cl)cc1Cl)CN(C)C` (stereo not shown) [CBK266766]: the viability at 28.5 h, 10 µM is 88.1%.

Turning to `CCc1ccc(CN2CCN(Cc3cc(Br)ccc3O)CC2)cc1` [CBK263666], for the setting “bulk resorufin, single well”, the viability at 28.5 h, 10 µM turned out to be 96.5%.

As to `COCc1cccc(-c2nccnc2Oc2cccc(OC)c2)c1` [CBK106958], the viability at 28.5 h, 10 µM was determined as 90.6%.

With `CCCC(=O)N1CCC(c2nc(C3CCCC3)no2)C1` (stereo not shown) [CBK285457], the viability at 28.5 h, 10 µM was 106%.

On to `Cc1ccc2cc(CNc3ccc4[nH]ncc4c3)c(=O)[nH]c2c1` [CBK281935], for which the viability at 28.5 h, 10 µM came to 86.1%.

With `COc1cc(C(CC(C)NC(C)(C)C)c2ccccc2)ccc1OCc1ccccc1` (stereo not shown) [CBK017901], the viability at 28.5 h, 10 µM worked out at 79.8%.

On to `Cc1ccc2nc(-c3ccccc3)cc(C(=O)NCCCn3ccnc3)c2c1` [CBK268526], for which the viability at 28.5 h, 10 µM was 96.1%.

With `CN1CCN(c2nc(Nc3ccc(Cl)cc3)nc(Oc3ccccc3)n2)CC1` [CBK004778], the viability at 28.5 h, 10 µM was 107%.

Take `O=C(Cc1ccsc1)N1CCC2(CCCNC2)C1` (stereo not shown) [CBK137153C]: the viability at 28.5 h, 10 µM is 85.4%.

On to `CCOC(=O)N1CCC(NS(=O)(=O)c2c(C)noc2C)CC1` [CBK045465], for which the viability at 28.5 h, 10 µM amounted to 102%.

Consider `O=C1NC(=S)NC(=O)C1=CNCCc1c[nH]c2ccccc12` [CBK261124], for which the viability at 28.5 h, 10 µM (bulk resorufin, single well) was 110%.

Consider `CN(C)CCN1CCN(c2nc(-c3cccc4ccccc34)cnc2N)CC1` [CBK063479], for which the viability at 28.5 h, 10 µM stood at 94.7%.

Regarding `CC(NCC(O)COCc1ccc(Cl)cc1)c1ccccc1` (stereo not shown) [CBK027972C], the viability at 28.5 h, 10 µM was determined as 87.5%.

With `Cc1ccc(S(=O)(=O)NC2CCC(C(=O)O)CC2)cc1` (stereo not shown) [CBK286929], the viability at 28.5 h, 10 µM worked out at 96.4%.

Turning to `C=CCn1c(SCC(=O)Nc2ccc(OC)cc2)nnc1-c1ccncc1` [CBK126824], the viability at 28.5 h, 10 µM worked out at 88.9%.

Take `CN(C)CCN1C(=O)C(O)=C(C(=O)c2ccc(S(=O)(=O)N(C)C)cc2)C1c1cccnc1` (stereo not shown) [CBK264729]: the viability at 28.5 h, 10 µM came to 99.7%.

In the case of `COc1ccc2[nH]cc(CCNC(=O)c3ccccn3)c2c1` [CBK115866], the viability at 28.5 h, 10 µM worked out at 95.7%.

In the case of `COc1ccc(-c2nn(-c3ccccc3)cc2/C=C2\SC(N3CCC(C(N)=O)CC3)=NC2=O)cc1` [CBK265178], the viability at 28.5 h, 10 µM stood at 105%.

Turning to `COc1ccc(NS(=O)(=O)c2ccc(NC(=S)NC(=O)C(C)(C)C)cc2)cc1` [CBK268990], the viability at 28.5 h, 10 µM is 109%.

As for `O=C(CC1CCN(C(=O)CC2CCCCC2)CC1)Nc1ccccc1CN1CCCC1` [CBK286046], the viability at 28.5 h, 10 µM is 100%.

In the case of `Cn1c(=O)n(C)c2cc(CNC(=O)CC3COCCN3)ccc21` (stereo not shown) [CBK307252], the viability at 28.5 h, 10 µM amounted to 103%.

Consider `COc1ccc(CCCC(=O)Nc2cc3cccnc3c(Br)n2)cc1` [CBK119486], for which the viability at 28.5 h, 10 µM worked out at 99.6%.

Regarding `CC12CCC(C(=O)N(CC(O)Cn3c4ccc(Br)cc4c4cc(Br)ccc43)C1=O)C2(C)C` (stereo not shown) [CBK262449], the viability at 28.5 h, 10 µM was found to be 94.4%.

Consider `COc1ccccc1NC(=O)c1c(NC(=O)Cc2ccccc2)sc2c1CCC(C(C)(C)C)C2` (stereo not shown) [CBK264102], for which the viability at 28.5 h, 10 µM worked out at 94.1%.

For the molecule `CC(CC(=O)O)CC(=O)N1CCC2(CC1)NC(=O)Cc1ccccc12` (stereo not shown) [CBK047281], the viability at 28.5 h, 10 µM was found to be 95.3%.

As for `O=C(C1CCCC1)N1CCCC(c2nccnc2-c2cccc(C(F)(F)F)c2)C1` (stereo not shown) [CBK286221], the viability at 28.5 h, 10 µM came out at 110%.

With `Cc1ccc(F)c(OC2(C(=O)O)CCN(Cc3cnc(C)nc3)CC2)c1` [CBK306860], the viability at 28.5 h, 10 µM came out at 100%.

Turning to `O=C1C(=CNCc2ccco2)C(=O)c2ccccc21` [CBK262688], the viability at 28.5 h, 10 µM came out at 115%.

As for `Nc1nonc1NC(=O)N/N=C/c1ccc(C(F)(F)F)cc1` [CBK261813], the viability at 28.5 h, 10 µM was 99.8%.

`COC(=O)C#CCNc1cc(Cl)ccc1Cl` [CBK025852]: the viability at 28.5 h, 10 µM is 57.6%.

Regarding `Cc1cccc(-n2ncc3c(NCCCN4CCOCC4)ncnc32)c1` [CBK265710], the viability at 28.5 h, 10 µM is 91.2%.

Consider `O=[N+]([O-])c1ccccc1S(=O)(=O)N1CCN(c2ccccc2)CC1` [CBK261755], for which the viability at 28.5 h, 10 µM came to 85.8%.
